Converted amounts (≈) assume the structure as drawn. The source made the active and inactive calls. No cut-off for these calls is given here.
Experiments:
Interstitial collagenase = target: T1, Interstitial collagenase (Homo sapiens, UniProt P03956); test: Inhibition of human MMP1 using Mca-PQGL-(3-[2,4-dinitrophenyl]-L-2,3-diaminopropionyl)-AR-OH as substrate measured after 2 to 4 hrs by fluorescence analysis
T1 sequence (P03956 whole entry): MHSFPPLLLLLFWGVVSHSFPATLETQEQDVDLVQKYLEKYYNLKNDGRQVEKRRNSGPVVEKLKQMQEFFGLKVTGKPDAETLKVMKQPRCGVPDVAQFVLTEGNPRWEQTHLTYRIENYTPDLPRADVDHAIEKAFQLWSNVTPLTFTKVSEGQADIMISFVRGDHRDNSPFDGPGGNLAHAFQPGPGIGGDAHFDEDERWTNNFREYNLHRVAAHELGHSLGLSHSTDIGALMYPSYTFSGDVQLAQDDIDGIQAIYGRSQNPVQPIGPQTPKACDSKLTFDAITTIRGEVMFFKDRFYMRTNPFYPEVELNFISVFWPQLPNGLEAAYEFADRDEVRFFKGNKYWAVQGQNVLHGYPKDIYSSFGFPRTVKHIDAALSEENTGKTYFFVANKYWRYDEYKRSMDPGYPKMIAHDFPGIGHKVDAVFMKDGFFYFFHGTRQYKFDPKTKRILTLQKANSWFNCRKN

Rattus norvegicus [1] = test: Reduction in ADAMTS-4/ADAMTS-5 mediated aggrecan cleavage products in Lewis rat model of MIA assessed as aggrecanase-cleaved fragments at 10 mg/kg, po bid administered post 3 days MIA induction measured after 4 hrs of last dosage on day 7 by NITEGE sandwich ELISA; assay type: functional
Rattus norvegicus [2] = test: Reduction in ADAMTS-4/ADAMTS-5 mediated aggrecan cleavage products in Lewis rat model of MIA assessed as aggrecanase-cleaved fragments at 30 mg/kg, po bid administered post 3 days MIA induction measured after 4 hrs of last dosage on day 7 by NITEGE sandwich ELISA; assay type: functional
[3] = Ratio of plasma concentration in Lewis rat model of MIA at 10 mg/kg, po bid administered post 3 days MIA induction measured after 4 hrs of last dosage on day 7 to IC50 for human ADAMTS5 in presence of Lewis rat plasma; assay type: ADME, organism-based; conditions: in vivo
[4] = Plasma concentration in Lewis rat model of MIA at 6 mg/mL, […] post 3 days MIA induction; assay type: ADME, organism-based
[5] = Half life in dog at 3 mg/kg, iv or 5 mg/kg, po; assay type: ADME, organism-based, Canis lupus familiaris; conditions: in vivo
[6] = Oral bioavailability in cynomolgus monkey at 5 mg/kg; assay type: ADME, organism-based, Macaca fascicularis; conditions: in vivo
[7] = Lipophilicity, log P of the compound; assay type: physicochemical; conditions: octanol/water
[8] = Volume of distribution at steady state in dog at 3 mg/kg, iv or 5 mg/kg, po; assay type: ADME, organism-based, Canis lupus familiaris; conditions: in vivo, read-out: Vdss
[9] = Volume of distribution at steady state in rat at 1 mg/kg, iv or 10 mg/kg, po; assay type: ADME, organism-based; conditions: in vivo, read-out: Vdss
[10] = Fraction unbound in human liver microsomes; assay type: ADME, Microsome
[11] = Dissociation constant, acidic pKa of the compound; assay type: physicochemical
[12] = Plasma concentration in Lewis rat model of MIA at 60 mg/mL, […] post 3 days MIA induction; assay type: ADME, organism-based
Rattus norvegicus [13] = test: Reduction in ADAMTS-4/ADAMTS-5 mediated aggrecan cleavage products in Lewis rat model of MIA assessed as aggrecanase-cleaved fragments at 60 mg/mL administered through infusion pump post 3 days MIA induction measured after 4 hrs of last dosage on day 7 by NITEGE sandwich ELISA; assay type: functional
[14] = Oral bioavailability in rat at 10 mg/kg; assay type: ADME, organism-based; conditions: in vivo
Rattus norvegicus [15] = test: Reduction in meniscal tear-induced osteoarthritis total joint score in Lewis rat surgical model at 30 and 100 mg/kg, po bid relative to vehicle control; assay type: functional, organism-based
Rattus norvegicus [16] = test: Reduction in ADAMTS-4/ADAMTS-5 mediated aggrecan cleavage products in Lewis rat model of MIA assessed as aggrecanase-cleaved fragments at 18 mg/mL administered through infusion pump post 3 days MIA induction measured after 4 hrs of last dosage on day 7 by NITEGE sandwich ELISA; assay type: functional
[17] = Clearance in rat at 1 mg/kg, iv or 10 mg/kg, po; assay type: ADME, organism-based; conditions: in vivo
[18] = Volume of distribution at steady state in cynomolgus monkey at 1 mg/kg, iv or 5 mg/kg, po; assay type: ADME, organism-based, Macaca fascicularis; conditions: in vivo, read-out: Vdss
[19] = Solubility of the compound at pH 7.7; assay type: physicochemical; conditions: buffer
[20] = Fraction unbound in cynomolgus monkey plasma; assay type: ADME, cell-free, Macaca fascicularis
[21] = Fraction unbound in rat plasma; assay type: ADME, cell-free
[22] = Half life in cynomolgus monkey at 1 mg/kg, iv or 5 mg/kg, po; assay type: ADME, organism-based, Macaca fascicularis; conditions: in vivo
[23] = Clearance in dog at 3 mg/kg, iv or 5 mg/kg, po; assay type: ADME, organism-based, Canis lupus familiaris; conditions: in vivo
[24] = Half life in rat at 1 mg/kg, iv or 10 mg/kg, po; assay type: ADME, organism-based; conditions: in vivo
[25] = Oral bioavailability in dog at 5 mg/kg; assay type: ADME, organism-based, Canis lupus familiaris; conditions: in vivo
[26] = Fraction unbound in dog plasma; assay type: ADME, cell-free, Canis lupus familiaris
[27] = Clearance in cynomolgus monkey at 1 mg/kg, iv or 5 mg/kg, po; assay type: ADME, organism-based, Macaca fascicularis; conditions: in vivo
[28] = Fraction unbound in human plasma; assay type: ADME, cell-free
Rattus norvegicus [29] = test: Reduction in ADAMTS-4/ADAMTS-5 mediated aggrecan cleavage products in Lewis rat model of MIA assessed as aggrecanase-cleaved fragments at 3 mg/kg, po bid administered post 3 days MIA induction measured after 4 hrs of last dosage on day 7 by NITEGE sandwich ELISA relative to vehicle control; assay type: functional, organism-based
Rattus norvegicus [30] = test: Reduction in ADAMTS-4/ADAMTS-5 mediated aggrecan cleavage products in Lewis rat model of MIA assessed as aggrecanase-cleaved fragments at 10 mg/mL, sc administered through infusion pump post 3 days MIA induction measured after 4 hrs of last dosage on day 7 by NITEGE sandwich ELISA; assay type: functional
[31] = Solubility of the compound at pH 7.5; assay type: physicochemical; conditions: buffer
[32] = Ratio of plasma concentration in Lewis rat model of MIA at 10 mg/mL, sc administered through infusion pump post 3 days MIA induction to IC50 for human ADAMTS5 in presence of rat plasma; assay type: ADME, organism-based; conditions: in vivo, 72 h
Rattus norvegicus [33] = test: Reduction in ADAMTS-4/ADAMTS-5 mediated aggrecan cleavage products in Lewis rat model of MIA assessed as aggrecanase-cleaved fragments at 30 mg/mL, sc administered through infusion pump post 3 days MIA induction measured after 4 hrs of last dosage on day 7 by NITEGE sandwich ELISA; assay type: functional
Rattus norvegicus [34] = test: Reduction in ADAMTS-4/ADAMTS-5 mediated aggrecan cleavage products in Lewis rat model of MIA assessed as aggrecanase-cleaved fragments at 4.3 mg/mL, sc administered through infusion pump post 3 days MIA induction measured after 4 hrs of last dosage on day 7 by NITEGE sandwich ELISA; assay type: functional
[35] = Solubility of the compound at pH 2.2; assay type: physicochemical; conditions: buffer
[36] = Ratio of plasma concentration in Lewis rat model of MIA at 30 mg/mL, sc administered through infusion pump post 3 days MIA induction to IC50 for human ADAMTS5 in presence of rat plasma; assay type: ADME, organism-based; conditions: in vivo, 72 h

| SMILES | IC50 (Interstitial collagenase) [µM] | Ratio [3] | half-life [5] [h] | bioavailability [6] [%] | logP [7] | Vd [8] [L/kg] | Vd [9] [L/kg] | fraction unbound [10] | pKa [11] | clearance [17] [mL/min/kg] | Vd [18] [L/kg] | fraction unbound [20] | fraction unbound [21] | half-life [22] [h] | clearance [23] [mL/min/kg] | half-life [24] [h] | bioavailability [25] [%] | fraction unbound [26] | inhibition in vivo at 10 mg/kg (Rattus norvegicus [1]) [%] | inhibition in vivo at 30 mg/kg (Rattus norvegicus [2]) [%] | also measured |
| --- | --- | --- | --- | --- | --- | --- | --- | --- | --- | --- | --- | --- | --- | --- | --- | --- | --- | --- | --- | --- | --- |
| Cn1ccnc1[C@]1(CNC(=O)c2cc3cc(Cl)ccc3o2)NC(=O)NC1=O | 19 |  |  |  |  |  |  |  |  |  |  |  |  |  |  |  |  |  |  |  |  |
| CCn1ccnc1[C@]1(CNC(=O)c2cc3cc(C(F)(F)F)ccc3o2)NC(=O)NC1=O | 100 | 14 |  |  |  |  |  |  |  |  |  |  |  |  |  |  |  |  | 19 | 35 |  |
| Cn1ccnc1[C@]1(CNC(=O)c2cc3cc(C(F)(F)F)ccc3o2)NC(=O)NC1=O | 100 | 15 | 5.7 | 76 | 1.63 | 0.52 | 0.31 | 0.719 | 7.35 | 4.8 | 0.59 | 0.248 | 0.143 | 6.5 | 4.8 | 1.9 | 93 | 0.196 | 32 | 53 | inhibition (INH) (Rattus norvegicus [30]): 64%; solubility [31]: 1740 µg/mL (≈ 4.13 mM); Ratio [32]: 31; inhibition (INH) (Rattus norvegicus [33]): 76%; inhibition (INH) (Rattus norvegicus [34]): 57%; clearance [27]: 7.3 mL/min/kg; fraction unbound [28]: 0.245; solubility [35]: 1750 µg/mL (≈ 4.15 mM); Ratio [36]: 100 |

Further compounds by falling IC50 (Interstitial collagenase), results first:

| IC50 (Interstitial collagenase) [µM] | Ratio [3] | half-life [5] [h] | bioavailability [6] [%] | logP [7] | Vd [8] [L/kg] | Vd [9] [L/kg] | fraction unbound [10] | pKa [11] | clearance [17] [mL/min/kg] | Vd [18] [L/kg] | fraction unbound [20] | fraction unbound [21] | half-life [22] [h] | clearance [23] [mL/min/kg] | half-life [24] [h] | bioavailability [25] [%] | fraction unbound [26] | SMILES | inhibition in vivo at 10 mg/kg (Rattus norvegicus [1]) [%] | inhibition in vivo at 30 mg/kg (Rattus norvegicus [2]) [%] | also measured |
| --- | --- | --- | --- | --- | --- | --- | --- | --- | --- | --- | --- | --- | --- | --- | --- | --- | --- | --- | --- | --- | --- |
| 100 | 22 |  |  |  |  |  |  |  |  |  |  |  |  |  |  |  |  | Cc1cnc([C@]2(CNC(=O)c3cc4cc(C(F)(F)F)ccc4o3)NC(=O)NC2=O)n1C | 17 | 45 |  |
| 50 |  | 9.1 | 100 | 2.29 | 0.92 | 3.6 | 0.557 | 8.52 | 13 | 0.8 | 0.229 | 0.206 | 12 | 1.3 | 3.8 | 74 | 0.215 | O=C1NC(=O)[C@](CNC(=O)c2cc3cc(C(F)(F)F)ccc3o2)(C2CC2)N1 |  |  | concentration at 72 h [4]: 630 nM; concentration at 72 h [12]: 2900 nM; inhibition (INH) (Rattus norvegicus [13]): 59%; bioavailability [14]: 83%; inhibition (Rattus norvegicus [15]): Active; inhibition (INH) (Rattus norvegicus [16]): 56%; solubility [19]: 16 µg/mL (≈ 0.042 mM); clearance [27]: 1 mL/min/kg; fraction unbound [28]: 0.255; inhibition (Rattus norvegicus [29]): Active |
